Measurements reported in paper PMC9090415, “Discovery of small molecule inhibitors of Plasmodium falciparum apicoplast DNA polymerase” (Journal of Enzyme Inhibition and Medicinal Chemistry, 2022).

Molecular target: P. falciparum apicoplast DNA polymerase (Pf-apPOL) (Plasmodium falciparum, UniProt Q8ILY1)
Assay: Fluorescence-based high-throughput DNA polymerase assay (molecular beacon), primary screen and dose-response
Assay type: biochemical
Settings: for DNA Pol: 90 min, 10 µM; for % inhibition apPOL 180' 2.5 / % inhibition apPOL 180' 5 / % inhibition apPOL 180' 10 / % inhibition apPOL 180' 20 / % inhibition apPOL 180' 40 / % inhibition apPOL 180' 80: read at 180'
In short: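 Single-point screening used 10 µM compound with 20 nM polymerase, 20 nM hairpin substrate and 6 µM dNTPs for 90 min at 25 °C. Confirmatory titrations (2.5–80 µM) followed fluorescence at three times, and IC50 was derived from a fit including a cooperativity term n.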

[1] = "DNA Pol" of the 186 hits list (screen value)

Sequence of P. falciparum apicoplast DNA polymerase (Pf-apPOL) (Q8ILY1 entry or part of it): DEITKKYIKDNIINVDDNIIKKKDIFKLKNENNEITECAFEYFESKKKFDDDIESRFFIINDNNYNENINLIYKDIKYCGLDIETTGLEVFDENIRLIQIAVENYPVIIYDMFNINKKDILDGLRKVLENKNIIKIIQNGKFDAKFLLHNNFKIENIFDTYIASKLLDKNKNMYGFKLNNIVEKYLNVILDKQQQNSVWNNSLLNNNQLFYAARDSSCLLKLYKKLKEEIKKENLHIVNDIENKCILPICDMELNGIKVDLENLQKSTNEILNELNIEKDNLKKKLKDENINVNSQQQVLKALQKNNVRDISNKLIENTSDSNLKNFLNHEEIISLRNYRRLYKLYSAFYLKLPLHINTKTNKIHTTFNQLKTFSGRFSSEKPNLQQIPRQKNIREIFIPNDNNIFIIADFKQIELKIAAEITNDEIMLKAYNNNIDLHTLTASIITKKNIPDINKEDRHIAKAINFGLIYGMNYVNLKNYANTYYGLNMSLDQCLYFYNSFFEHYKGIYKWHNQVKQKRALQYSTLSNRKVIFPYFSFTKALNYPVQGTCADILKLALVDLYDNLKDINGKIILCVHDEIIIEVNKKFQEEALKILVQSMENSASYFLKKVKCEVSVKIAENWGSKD

`CC(C)CC(C(=O)O)N1C(=O)C2C3C=CC(C2C1=O)C1C(=O)N(C(CC(C)C)C(=O)O)C(=O)C31` (stereo not shown) [KU0193449] was tested, and the “DNA Pol” value (186 hits, DNA Pol (screen value), unit not given) was 28, the “DNA Pol” value ('DNA Pol' (screen value), unit not given) was 28 and the “% inhibition Apo pol 10' 2.5” value (DRC-1, read at 10', concentration 2.5) was 0%. The “% inhibition Apo pol 10' 5” value (DRC-1, read at 10', concentration 5) was 0.7522%, the “% inhibition Apo pol 10' 10” value (DRC-1, read at 10', concentration 10) was 13.4113% and the “% inhibition Apo pol 10' 20” value (DRC-1, read at 10', concentration 20) was 21.694%. The “% inhibition Apo pol 10' 40” value (DRC-1, read at 10', concentration 40) was 38.6815%, the “% inhibition Apo pol 10' 80” value (DRC-1, read at 10', concentration 80) was 61.0106% and the “% inhibition Apol 90' 2.5” value (DRC-1, read at 90', concentration 2.5) was 5.482%. The “% inhibition Apol 90' 5” value (DRC-1, read at 90', concentration 5) was 4.361%, the “% inhibition Apol 90' 10” value (DRC-1, read at 90', concentration 10) was 18.2004% and the “% inhibition Apol 90' 20” value (DRC-1, read at 90', concentration 20) was 26.7933%. For the same compound, the “% inhibition Apol 90' 40” value (DRC-1, read at 90', concentration 40) was 43.0787%, the “% inhibition Apol 90' 80” value (DRC-1, read at 90', concentration 80) was 61.6554% and the “% inhibition apPOL 180' 2.5” value (DRC-1, concentration 2.5) was 11.5947%. The “% inhibition apPOL 180' 5” value (DRC-1, concentration 5) was 8.787%, the “% inhibition apPOL 180' 10” value (DRC-1, concentration 10) was 22.2545% and the “% inhibition apPOL 180' 20” value (DRC-1, concentration 20) was 29.0446%. The “% inhibition apPOL 180' 40” value (DRC-1, concentration 40) was 41.2526%, the “% inhibition apPOL 180' 80” value (DRC-1, concentration 80) was 55.1992% and the “% inhibition Apo pol 5'” value (DRC-2, concentration 20) was 13%. The “% inhibition Apol 40'” value (DRC-2, concentration 20) was 20%, the “% inhibition ApPOL 90'” value (DRC-2, concentration 20) was 20% and the “% inhibition apPOL 180'” value (DRC-2, concentration 20) was 13%. For the same compound, the “% inhibition Apo pol 5' 2.5” value (DRC-2, read at 5', concentration 2.5) was -1.41%, the “% inhibition Apo pol 5' 5” value (DRC-2, read at 5', concentration 5) was 2.69% and the “% inhibition Apo pol 5' 10” value (DRC-2, read at 5', concentration 10) was 10%. The “% inhibition Apo pol 5' 20” value (DRC-2, read at 5', concentration 20) was 13%, the “% inhibition Apo pol 5' 40” value (DRC-2, read at 5', concentration 40) was 23% and the “% inhibition Apo pol 5' 80” value (DRC-2, read at 5', concentration 80) was 31%. The “% inhibition Apol 40' 2.5” value (DRC-2, read at 40', concentration 2.5) was -0.315%, the “% inhibition Apol 40' 5” value (DRC-2, read at 40', concentration 5) was 4.49% and the “% inhibition Apol 40' 10” value (DRC-2, read at 40', concentration 10) was 12%. For the same compound, the “% inhibition Apol 40' 20” value (DRC-2, read at 40', concentration 20) was 20%, the “% inhibition Apol 40' 40” value (DRC-2, read at 40', concentration 40) was 33% and the “% inhibition Apol 40' 80” value (DRC-2, read at 40', concentration 80) was 49%. For the same compound, the “% inhibition ApPOL 90' 2.5” value (DRC-2, read at 90', concentration 2.5) was -0.778%, the “% inhibition ApPOL 90' 5” value (DRC-2, read at 90', concentration 5) was 4.24% and the “% inhibition ApPOL 90' 10” value (DRC-2, read at 90', concentration 10) was 11%. For the same compound, the “% inhibition ApPOL 90' 20” value (DRC-2, read at 90', concentration 20) was 20%, the “% inhibition ApPOL 90' 40” value (DRC-2, read at 90', concentration 40) was 34% and the “% inhibition ApPOL 90' 80” value (DRC-2, read at 90', concentration 80) was 51%. The “% inhibition apPOL 180' 2.5” value (DRC-2, concentration 2.5) was -5%, the “% inhibition apPOL 180' 5” value (DRC-2, concentration 5) was -2.57% and the “% inhibition apPOL 180' 10” value (DRC-2, concentration 10) was 5%. For the same compound, the “% inhibition apPOL 180' 20” value (DRC-2, concentration 20) was 13%, the “% inhibition apPOL 180' 40” value (DRC-2, concentration 40) was 28% and the “% inhibition apPOL 180' 80” value (DRC-2, concentration 80) was 47%.

With `CCOC(=O)C1=C2c3cc(OC)c(OC)cc3CC(C)(C)N2C(=O)C1=O` [KU0193659] the “DNA Pol” value [1] was 50, the “% inhibition Apo pol 10'” value (DRC-1, concentration 2.5) was 0.5902% and the “% inhibition Apo pol 10'” value (DRC-1, concentration 5) was 6.068%. The “% inhibition Apo pol 10'” value (DRC-1, concentration 10) was 24.2091%, the “% inhibition Apo pol 10'” value (DRC-1, concentration 20) was 48.7622% and the “% inhibition Apo pol 10'” value (DRC-1, concentration 40) was 76.2717%. For the same compound, the “% inhibition Apo pol 10'” value (DRC-1, concentration 80) was 83.8971%, the “% inhibition Apol 90'” value (DRC-1, concentration 2.5) was 2.413% and the “% inhibition Apol 90'” value (DRC-1, concentration 5) was 7.311%. The “% inhibition Apol 90'” value (DRC-1, concentration 10) was 23.2588%, the “% inhibition Apol 90'” value (DRC-1, concentration 20) was 44.3755% and the “% inhibition Apol 90'” value (DRC-1, concentration 40) was 72.221%. For the same compound, the “% inhibition Apol 90'” value (DRC-1, concentration 80) was 80.3053%, the “% inhibition apPOL 180'” value (DRC-1, concentration 2.5) was 2.939% and the “% inhibition apPOL 180'” value (DRC-1, concentration 5) was 8.013%. For the same compound, the “% inhibition apPOL 180'” value (DRC-1, concentration 10) was 23.6538%, the “% inhibition apPOL 180'” value (DRC-1, concentration 20) was 40.1403% and the “% inhibition apPOL 180'” value (DRC-1, concentration 40) was 67.3971%. For the same compound, the “% inhibition apPOL 180'” value (DRC-1, concentration 80) was 76.7403%, the “% inhibition Apo pol 5'” value (DRC-2, concentration 2.5) was -4% and the “% inhibition Apo pol 5'” value (DRC-2, concentration 5) was -4.49%. For the same compound, the “% inhibition Apo pol 5'” value (DRC-2, concentration 10) was 16%, the “% inhibition Apo pol 5'” value (DRC-2, concentration 20) was 26% and the “% inhibition Apo pol 5'” value (DRC-2, concentration 40) was 41%. The “% inhibition Apo pol 5'” value (DRC-2, concentration 80) was 41%, the “% inhibition Apol 40'” value (DRC-2, concentration 2.5) was -2.41% and the “% inhibition Apol 40'” value (DRC-2, concentration 5) was -3%. For the same compound, the “% inhibition Apol 40'” value (DRC-2, concentration 10) was 21%, the “% inhibition Apol 40'” value (DRC-2, concentration 20) was 39% and the “% inhibition Apol 40'” value (DRC-2, concentration 40) was 57%. For the same compound, the “% inhibition Apol 40'” value (DRC-2, concentration 80) was 57%, the “% inhibition ApPOL 90'” value (DRC-2, concentration 2.5) was -1.64% and the “% inhibition ApPOL 90'” value (DRC-2, concentration 5) was -0.605%. The “% inhibition ApPOL 90'” value (DRC-2, concentration 10) was 22%, the “% inhibition ApPOL 90'” value (DRC-2, concentration 20) was 43% and the “% inhibition ApPOL 90'” value (DRC-2, concentration 40) was 64%. For the same compound, the “% inhibition ApPOL 90'” value (DRC-2, concentration 80) was 62%, the “% inhibition apPOL 180'” value (DRC-2, concentration 2.5) was -2% and the “% inhibition apPOL 180'” value (DRC-2, concentration 5) was 1.35%. The “% inhibition apPOL 180'” value (DRC-2, concentration 10) was 23%, the “% inhibition apPOL 180'” value (DRC-2, concentration 20) was 46% and the “% inhibition apPOL 180'” value (DRC-2, concentration 40) was 68%. The “% inhibition apPOL 180'” value (DRC-2, concentration 80) was 66% and the “DNA Pol” value (primary screen value, DNA Pol) was 50.

With `CC1(C)CC(=O)C2=C(C1)OC1=C(C(=O)CC(C)(C)C1)C2c1ccc(O)cc1` [KU0194226] the “DNA Pol” value [1] was 31, the “% inhibition Apo pol 10'” value (DRC-1, concentration 2.5) was 1.4755% and the “% inhibition Apo pol 10'” value (DRC-1, concentration 5) was 6.619%. For the same compound, the “% inhibition Apo pol 10'” value (DRC-1, concentration 10) was 20.9207%, the “% inhibition Apo pol 10'” value (DRC-1, concentration 20) was 40.5777% and the “% inhibition Apo pol 10'” value (DRC-1, concentration 40) was 75.7382%. The “% inhibition Apo pol 10'” value (DRC-1, concentration 80) was 84.2344%, the “% inhibition Apol 90'” value (DRC-1, concentration 2.5) was 3.436% and the “% inhibition Apol 90'” value (DRC-1, concentration 5) was 6.7212%. For the same compound, the “% inhibition Apol 90'” value (DRC-1, concentration 10) was 20.1854%, the “% inhibition Apol 90'” value (DRC-1, concentration 20) was 38.6225% and the “% inhibition Apol 90'” value (DRC-1, concentration 40) was 72.348%. The “% inhibition Apol 90'” value (DRC-1, concentration 80) was 80.6214%, the “% inhibition apPOL 180'” value (DRC-1, concentration 2.5) was 2.939% and the “% inhibition apPOL 180'” value (DRC-1, concentration 5) was 5.25%. The “% inhibition apPOL 180'” value (DRC-1, concentration 10) was 19.133%, the “% inhibition apPOL 180'” value (DRC-1, concentration 20) was 35.7891% and the “% inhibition apPOL 180'” value (DRC-1, concentration 40) was 67.9328%. For the same compound, the “% inhibition apPOL 180'” value (DRC-1, concentration 80) was 76.0012%, the “% inhibition Apo pol 5'” value (DRC-2, concentration 2.5) was 2.55% and the “% inhibition Apo pol 5'” value (DRC-2, concentration 5) was 2.7%. The “% inhibition Apo pol 5'” value (DRC-2, concentration 10) was 17%, the “% inhibition Apo pol 5'” value (DRC-2, concentration 20) was 21% and the “% inhibition Apo pol 5'” value (DRC-2, concentration 40) was 37%. For the same compound, the “% inhibition Apo pol 5'” value (DRC-2, concentration 80) was 35%, the “% inhibition Apol 40'” value (DRC-2, concentration 2.5) was 5.61% and the “% inhibition Apol 40'” value (DRC-2, concentration 5) was -0.353%. For the same compound, the “% inhibition Apol 40'” value (DRC-2, concentration 10) was 23%, the “% inhibition Apol 40'” value (DRC-2, concentration 20) was 31% and the “% inhibition Apol 40'” value (DRC-2, concentration 40) was 52%. The “% inhibition Apol 40'” value (DRC-2, concentration 80) was 59%, the “% inhibition ApPOL 90'” value (DRC-2, concentration 2.5) was 6% and the “% inhibition ApPOL 90'” value (DRC-2, concentration 5) was -4.67%. The “% inhibition ApPOL 90'” value (DRC-2, concentration 10) was 27%, the “% inhibition ApPOL 90'” value (DRC-2, concentration 20) was 34% and the “% inhibition ApPOL 90'” value (DRC-2, concentration 40) was 57%. For the same compound, the “% inhibition ApPOL 90'” value (DRC-2, concentration 80) was 65%, the “% inhibition apPOL 180'” value (DRC-2, concentration 2.5) was 5.45% and the “% inhibition apPOL 180'” value (DRC-2, concentration 5) was -63%. The “% inhibition apPOL 180'” value (DRC-2, concentration 10) was 27%, the “% inhibition apPOL 180'” value (DRC-2, concentration 20) was 36% and the “% inhibition apPOL 180'” value (DRC-2, concentration 40) was 61%. The “% inhibition apPOL 180'” value (DRC-2, concentration 80) was 70% and the “DNA Pol” value (primary screen value, DNA Pol) was 31.
